From US20160046618A1, “Cyclopropyl Fused Thiazin-2-Amine Compounds as Beta-Secretase Inhibitors and Methods of Use” (AMGEN INC., priority 2014, published 2016)

Experiments:
human recombinant BACE1 = human recombinant BACE1 (Homo sapiens (Human), UniProt P56817); experiment: In vitro enzymatic BACE1 FRET assay; type: biochemical; conditions: BACE1 FRET enzyme assay; read-out: IC50 IP (μM) BACE1 enzyme
Method in brief: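 Ni-NTA-purified recombinant protease incubated with compound; reaction started with 50 nM FRET peptide substrate (fluorophore/quencher flanking the BACE cleavage site) and run 1 h. Stopped with Tris buffer raising pH to neutral; fluorescence read at ex 488/em 590 nm.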

human recombinant BACE2 = human recombinant BACE2 (Homo sapiens (Human), UniProt Q9Y5Z0); experiment: In vitro enzymatic BACE2 FRET assay; type: biochemical; conditions: BACE2 FRET enzyme assay; read-out: IC50 IP (μM) BACE2 enzyme
Chain of human recombinant BACE2 (Q9Y5Z0 63-518): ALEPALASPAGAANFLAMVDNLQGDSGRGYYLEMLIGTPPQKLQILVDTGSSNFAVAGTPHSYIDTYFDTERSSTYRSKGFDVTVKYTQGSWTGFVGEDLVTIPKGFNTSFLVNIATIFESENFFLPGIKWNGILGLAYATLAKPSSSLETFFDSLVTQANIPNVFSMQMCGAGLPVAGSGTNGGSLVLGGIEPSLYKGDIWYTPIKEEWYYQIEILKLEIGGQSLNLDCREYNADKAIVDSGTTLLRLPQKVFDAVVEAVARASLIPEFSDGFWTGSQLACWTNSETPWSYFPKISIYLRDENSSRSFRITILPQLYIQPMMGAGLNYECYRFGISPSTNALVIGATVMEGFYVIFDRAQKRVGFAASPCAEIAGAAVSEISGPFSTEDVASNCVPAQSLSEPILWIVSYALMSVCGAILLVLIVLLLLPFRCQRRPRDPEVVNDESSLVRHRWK
Procedure: These recombinant proteins were further purified using Ni-NTA affinity chromatography (Qiagen). […] This assay is effectively started by the addition of FRET substrate (50 nM) and the combination is incubated for one hour. The FRET assay is terminated by addition of Tris buffer, which raises the pH to neutrality, and the fluorescence is determined. The FRET substrate is a peptide with commercially available fluorophore and quencher, on opposite sides of the BACE cleavage site. Proteolytic cleavage of the FRET substrate releases quenching of fluorescence (excitation 488 nm and emission 590 nm).

[1] = tested on: Aβ40 in conditioned medium of cells stably expressing Amyloid Precursor Protein (APP); experiment: In vitro BACE-1 cell-based assay (Aβ40 sandwich ELISA); conditions: BACE1 cell-based assay; read-out: IC50 IP (μM) BACE1 cell
Method in brief: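 APP-expressing cells treated 24 h at 37 °C with compound in 10-point dose response (top 100 μM or 10 μM, 0.1% DMSO final). Secreted Aβ40 in conditioned medium quantified by sandwich ELISA (pAb40 capture, biotinylated 6E10 detection, time-resolved europium fluorescence); IC50 from percent inhibition versus concentration.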

Recombinant Cat D = Recombinant Cat D (Homo sapiens (Human), UniProt P07339); experiment: In vitro enzymatic Cathepsin D (Cat D) FRET assay; type: biochemical; conditions: Cathepsin D FRET enzyme assay; read-out: IC50 IP (μM) CatD
Chain of Recombinant Cat D (P07339 65-412): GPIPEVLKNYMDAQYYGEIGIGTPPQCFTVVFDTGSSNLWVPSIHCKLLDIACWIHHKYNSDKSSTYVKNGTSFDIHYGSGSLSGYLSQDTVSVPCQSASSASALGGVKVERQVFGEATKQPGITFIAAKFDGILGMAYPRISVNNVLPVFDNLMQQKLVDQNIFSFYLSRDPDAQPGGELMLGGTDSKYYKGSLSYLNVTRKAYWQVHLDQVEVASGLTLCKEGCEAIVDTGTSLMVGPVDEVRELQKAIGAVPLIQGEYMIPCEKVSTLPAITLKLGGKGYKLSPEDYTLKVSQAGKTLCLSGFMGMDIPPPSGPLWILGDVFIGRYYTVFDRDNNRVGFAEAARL
Method in brief: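 Assay pH is 3.5 (0.05 M citrate, 5 mM CHAPS, 10% DMSO final) with Cat D from CHO cells. A 20 nM quenched peptide substrate is cleaved over one hour; the reaction is ended with Tris and read by fluorescence (ex 500, em 580 nm).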

Chain of human recombinant BACE1 (P56817 46-501): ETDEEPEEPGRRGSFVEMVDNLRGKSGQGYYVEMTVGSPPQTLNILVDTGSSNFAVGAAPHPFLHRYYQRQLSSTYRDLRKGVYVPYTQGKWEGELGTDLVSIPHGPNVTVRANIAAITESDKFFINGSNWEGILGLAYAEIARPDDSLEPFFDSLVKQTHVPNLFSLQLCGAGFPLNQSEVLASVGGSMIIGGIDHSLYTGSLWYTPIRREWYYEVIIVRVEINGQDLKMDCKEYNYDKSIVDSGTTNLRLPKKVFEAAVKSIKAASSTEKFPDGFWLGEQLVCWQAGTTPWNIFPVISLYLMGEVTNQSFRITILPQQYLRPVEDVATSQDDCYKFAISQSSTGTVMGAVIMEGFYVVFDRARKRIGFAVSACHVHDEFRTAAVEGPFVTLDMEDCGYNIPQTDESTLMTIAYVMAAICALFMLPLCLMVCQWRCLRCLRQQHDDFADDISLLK

| SMILES | IC50 (human recombinant BACE1) [µM] | IC50 (human recombinant BACE2) [µM] | IC50 [1] [µM] | IC50 (Recombinant Cat D) [µM] |
| --- | --- | --- | --- | --- |
| C#CCOc1cnc(C(=O)Nc2cc(F)c(F)c([C@@]3(C)N=C(N)S[C@@]4(CO)C[C@H]43)c2)cn1 [Example 61, N-(3-((1S,5S,6S)-3-amino-1-(hydroxymethyl)-5-methyl-2-thia-4-azabicyclo[4.1.0]hept-3-en-5-yl)-4,5-difluorophenyl)-5-(2-propyn-1-yloxy)-2-pyrazinecarboxamide] | 0.0003 | 0.0201 | 0.00035 | 59.7 |
| COc1cnc2c(Nc3cc(F)c(F)c([C@@]4(CF)N=C(N)S[C@H]5C[C@H]54)c3)nccc2n1 [Example 62, N-(3-((1S,5S,6S)-3-amino-5-(fluoromethyl)-2-thia-4-azabicyclo[4.1.0]hept-3-en-5-yl)-4,5-difluorophenyl)-2-methoxypyrido[3,4-b]pyrazin-5-amine] | 0.0289 | 0.0885 | 0.14 | 295 |
| CC(C)Oc1cnc2c(Nc3cc(F)c(F)c([C@@]4(CF)N=C(N)S[C@H]5C[C@H]54)c3)nccc2n1 [Example 63, N-(3-((1S,5S,6S)-3-amino-5-(fluoromethyl)-2-thia-4-azabicyclo[4.1.0]hept-3-en-5-yl)-4,5-difluorophenyl)-2-(1-methylethoxy)pyrido[3,4-b]pyrazin-5-amine] | 0.137 | 3.75 | 4.65 | 494 |
| COc1cnc2c(Nc3cc(F)c(F)c([C@@]4(C)N=C(N)S[C@@]5(CF)C[C@H]54)c3)ncnc2c1 [Example 64, (1S,5S,6S)-5-(2,3-difluoro-5-((7-methoxypyrido[3,2-d]pyrimidin-4-yl)amino)phenyl)-1-(fluoromethyl)-5-methyl-2-thia-4-azabicyclo[4.1.0]hept-3-en-3-amine] | 0.00448 | 0.025 | 0.00281 | 268 |
| COC[C@]12C[C@H]1[C@@](C)(c1cc(Nc3ncnc4cc(OC)cnc34)cc(F)c1F)N=C(N)S2 [Example 65, N-(3-((1S,5S,6S)-3-amino-1-(methoxymethyl)-5-methyl-2-thia-4-azabicyclo[4.1.0]hept-3-en-5-yl)-4,5-difluorophenyl)-7-methoxypyrido[3,2-d]pyrimidin-4-amine] | 0.0133 | 0.0836 | 0.00781 | 1230 |
| COc1cnc2c(Nc3cc(F)c(F)c([C@@]4(CF)N=C(N)S[C@H]5C[C@H]54)c3)ncnc2c1 [Example 66, N-(3-((1S,5S,6S)-3-amino-5-(fluoromethyl)-2-thia-4-azabicyclo[4.1.0]hept-3-en-5-yl)-4,5-difluorophenyl)-7-methoxypyrido[3,2-d]pyrimidin-4-amine] | 0.0171 | 0.132 | 0.0525 | > 400 |
| C[C@]1(c2cc(NC(=O)c3ccc(Cl)cn3)ccc2F)N=C(N)S[C@@H]2[C@H]1C2(F)F [Example 69, N-(3-((1R,5S,6R)-3-amino-7,7-difluoro-5-methyl-2-thia-4-azabicyclo[4.1.0]hept-3-en-5-yl)-4-fluorophenyl)-5-chloro-2-pyridinecarboxamide] | 0.0152 | 0.00302 | 0.114 | 939 |
| Cc1cc(C#N)cnc1C(=O)Nc1cc(F)c(F)c([C@@]2(CF)N=C(N)S[C@@]3(CO)C[C@H]32)c1 [Example 70, N-(3-((1S,5S,6S)-3-amino-5-(fluoromethyl)-1-(hydroxymethyl)-2-thia-4-azabicyclo[4.1.0]hept-3-en-5-yl)-4,5-difluorophenyl)-5-cyano-3-methyl-2-pyridinecarboxamide] | 0.00116 | 0.00247 | 0.0035 | > 400 |
| C#CCOc1ccc(C(=O)Nc2cc(F)c(F)c([C@@]3(C)N=C(N)S[C@@]4(CO)C[C@H]43)c2)nc1 [Example 71, N-(3-((1S,5S,6S)-3-amino-1-(hydroxymethyl)-5-methyl-2-thia-4-azabicyclo[4.1.0]hept-3-en-5-yl)-4,5-difluorophenyl)-5-(2-propyn-1-yloxy)-2-pyridinecarboxamide] | 0.00047 | 0.0375 | 0.00156 | 329 |
| COC[C@]12C[C@H]1[C@@](CF)(c1cc(Nc3ncnc4cc(Cl)cnc34)ccc1F)N=C(N)S2 [Example 73, N-(3-((1S,5S,6S)-3-amino-5-(fluoromethyl)-1-(methoxymethyl)-2-thia-4-azabicyclo[4.1.0]hept-3-en-5-yl)-4-fluorophenyl)-7-chloropyrido[3,2-d]pyrimidin-4-amine] | 0.00911 | 0.00296 | 0.0177 | > 400 |
| COc1cnc(C(=O)Nc2ccc(F)c([C@@]3(CF)N=C(N)S[C@@]4(CO)C[C@H]43)c2)c(C)n1 [Example 75, N-(3-((1S,5S,6S)-3-amino-5-(fluoromethyl)-1-(hydroxymethyl)-2-thia-4-azabicyclo[4.1.0]hept-3-en-5-yl)-4-fluorophenyl)-5-methoxy-3-methyl-2-pyrazinecarboxamide] | 0.012 | 0.0295 | 0.0136 | > 400 |
| C#CCOc1cnc(C(=O)Nc2ccc(F)c([C@@]3(CF)N=C(N)S[C@@]4(CO)C[C@H]43)c2)c(C)n1 [Example 76, N-(3-((1S,5S,6S)-3-amino-5-(fluoromethyl)-1-(hydroxymethyl)-2-thia-4-azabicyclo[4.1.0]hept-3-en-5-yl)-4-fluorophenyl)-3-methyl-5-(2-propyn-1-yloxy)-2-pyrazinecarboxamide] | 0.00095 | 0.0174 | 0.00271 | 1490 |
| C#CCOc1cnc(C(=O)Nc2cc(F)c(F)c([C@@]3(C)N=C(N)S[C@H]4C[C@H]43)c2)c(C)n1 [Example 77, N-(3-((1S,5S,6S)-3-amino-5-methyl-2-thia-4-azabicyclo[4.1.0]hept-3-en-5-yl)-4,5-difluorophenyl)-3-methyl-5-(2-propyn-1-yloxy)-2-pyrazinecarboxamide] | 0.0047 | 0.0461 | 0.0217 | 949 |
| Cc1cc(Cl)cnc1C(=O)Nc1cc(F)c(F)c([C@@]2(CF)N=C(N)S[C@H]3C[C@H]32)c1 [Example 78, N-(3-((1S,5S,6S)-3-amino-5-(fluoromethyl)-2-thia-4-azabicyclo[4.1.0]hept-3-en-5-yl)-4,5-difluorophenyl)-5-chloro-3-methyl-2-pyridinecarboxamide] | 0.00464 | 0.00126 | 0.0917 | 627 |
| Cc1nc(OCC(F)(F)F)cnc1C(=O)Nc1ccc(F)c([C@@]2(CF)N=C(N)S[C@@]3(CO)C[C@H]32)c1 [Example 79, N-(3-((1S,5S,6S)-3-amino-5-(fluoromethyl)-1-(hydroxymethyl)-2-thia-4-azabicyclo[4.1.0]hept-3-en-5-yl)-4-fluorophenyl)-3-methyl-5-(2,2,2-trifluoroethoxy)-2-pyrazinecarboxamide] | 0.00489 | 0.143 | 0.0284 | > 400 |
| N#Cc1cnc2c(Nc3ccc(F)c([C@@]4(CF)N=C(N)S[C@@]5(CO)C[C@H]54)c3)ncnc2c1 [Example 80, 4-((3-((1S,5S,6S)-3-amino-5-(fluoromethyl)-1-(hydroxymethyl)-2-thia-4-azabicyclo[4.1.0]hept-3-en-5-yl)-4-fluorophenyl)amino)pyrido[3,2-d]pyrimidine-7-carbonitrile] | 0.00913 | 0.0251 | 0.00851 | > 400 |
| COc1cnc(C(=O)Nc2cc(F)c(F)c([C@@]3(CF)N=C(N)S[C@H]4C[C@H]43)c2)c(C)c1 [Example 81, N-(3-((1S,5S,6S)-3-amino-5-(fluoromethyl)-2-thia-4-azabicyclo[4.1.0]hept-3-en-5-yl)-4,5-difluorophenyl)-5-methoxy-3-methyl-2-pyridinecarboxamide] | 0.0219 | 0.0116 | 0.047 | 1390 |
| C#CCOc1cnc(C(=O)Nc2cc(F)c(F)c([C@@]3(CF)N=C(N)S[C@@]4(CO)C[C@H]43)c2)cn1 [Example 83, N-(3-((1S,5S,6S)-3-amino-5-(fluoromethyl)-1-(hydroxymethyl)-2-thia-4-azabicyclo[4.1.0]hept-3-en-5-yl)-4,5-difluorophenyl)-5-(2-propyn-1-yloxy)-2-pyrazinecarboxamide] | 0.00046 | 0.0138 | 0.00092 | 105 |
| CC#CCOc1cnc(C(=O)Nc2cc(F)c(F)c([C@@]3(C)N=C(N)S[C@@]4(CO)C[C@H]43)c2)c(C)c1 [Example 85, N-(3-((1S,5S,6S)-3-amino-1-(hydroxymethyl)-5-methyl-2-thia-4-azabicyclo[4.1.0]hept-3-en-5-yl)-4,5-difluorophenyl)-5-(2-butyn-1-yloxy)-3-methyl-2-pyridinecarboxamide] | 0.00062 | 0.0435 | 0.00216 | 1550 |
